Target: human lung tryptase
Experiment: β-Tryptase In-Vitro Enzyme Assay
Assay type: biochemical
Details: human lung tryptase 1 nM, substrate H-D-HHT-Ala-Arg-pNa 500 μM, pH 7.4, room temperature
Description: The β-tryptase assay was conducted with human lung tryptase (Cortex Biochem #CP3033) in an aqueous buffer (10 mM Tris, 10 mM Hepes, 150 mM NaCl, 0.1% PEG 8000, pH 7.4) using the chromogenic substrate H-D-HHT-Ala-Arg-pNa. […] Percent inhibition was calculated by comparing the initial reaction velocity of samples without inhibitor to those with inhibitor. The initial reaction velocities were analyzed using Microsoft Excel.

Structure (SMILES)	IC50
NCc1ccc2c(c1)C1(CCN(C(=O)c3csc(-c4ccncc4)n3)CC1)CO2 [Cpd 122, 1-(2-pyridin-4-yl-thiazol-4-yl)carbonyl-5′-aminomethyl-spiro[piperidine-4,3′-(2H)-benzo[b]furan]]	0.76 µM
NCc1ccc2c(c1)C1(CCN(C(=O)c3ccc(Cl)c(Cl)c3)CC1)CS2 [Cpd 353, 1-(3,4-dichlorophenyl)carbonyl-5′-aminomethyl-spiro[piperidine-4,3′-(2H)-benzo[b]thiophene]]	0.037 µM
CSc1ccc(C(=O)N2CCC3(CC2)COc2ccc(CN)cc23)s1 [Cpd 247, 1-(5-methylthio-thien-2-yl)carbonyl-5′-aminomethyl-spiro[piperidine-4,3′-(2H)-benzo[b]furan]]	0.036 µM
C/C(=C/c1ccccc1)C(=O)N1CCC2(CC1)COc1ccc(CN)cc12 [Cpd 181, (Z)-1-(1-methyl-2-phenylethenyl)carbonyl-5′-aminomethyl-spiro[piperidine-4,3′-(2H)-benzo[b]furan]]	1.7 µM
NCc1ccc2c(c1)C1(CCN(C(=O)Cc3cccc(C(F)(F)F)c3)CC1)CO2 [Cpd 85, 1-(3-trifluoromethyl-benzyl)carbonyl-5′-aminomethyl-spiro[piperidine-4,3′-(2H)-benzo[b]furan]]	2.7 µM
COc1ccc(-c2ccc(C(=O)N3CCC4(CC3)COc3ccc(CN)cc34)o2)cc1 [Cpd 132, 1-[5-(4-methoxy-phenyl)-furan-2-yl]carbonyl-5′-aminomethyl-spiro[piperidine-4,3′-(2H)-benzo[b]furan]]	0.026 µM
CCn1cc(C(=O)N2CCC3(CC2)COc2ccc(CN)cc23)c2cccc(C)c21 [Cpd 250, 1-(1-ethyl-7-methyl-indol-3-yl)carbonyl-5′-aminomethyl-spiro[piperidine-4,3′-(2H)-benzo[b]furan]]	0.44 µM
NCc1ccc2c(c1)C1(CCN(C(=O)c3ccc(C4CCCCC4)cc3)CC1)CO2 [Cpd 73, 1-(4-cyclohexyl-phenyl)carbonyl-5′-aminomethyl-spiro[piperidine-4,3′-(2H)-benzo[b]furan]]	2.5 µM
COc1ccccc1C#Cc1ccc(C(=O)N2CCC3(CC2)COc2ccc(CN)cc23)o1 [Cpd 173, 1-[5-(2-methoxy-phenylethynyl)-furan-2-yl]carbonyl-5′-aminomethyl-spiro[piperidine-4,3′-(2H)-benzo[b]furan]]	0.013 µM

Second part, the compound after the results:

IC50	Structure (SMILES)
0.026 µM	NCc1ccc2c(c1)C1(CCN(C(=O)c3ccc(C#Cc4ccccc4)o3)CC1)CN2S(=O)(=O)c1cccs1 [Cpd 358, 1-(5-phenylethynyl-furan-2-yl)carbonyl-1′-thien-2-ylsulfonyl-5′-aminomethyl-spiro[piperidine-4,3′-(2H)-indole]]
0.2 µM	NCc1ccc2c(c1)C1(CCN(C(=O)c3cc4c(s3)CCC4)CC1)CO2 [Cpd 246, 1-(5,6-dihydro-4H-cyclopenta[b]thien-2-yl)carbonyl-5′-aminomethyl-spiro[piperidine-4,3′-(2H)-benzo[b]furan]]
0.015 µM	CC1(C)CC(=O)c2c(SCc3ccccc3)sc(C(=O)N3CCC4(CC3)COc3ccc(CN)cc34)c2C1 [Cpd 232, 1-(3-benzylthio-4-oxo-6,6-dimethyl-6,7-dihydro-5H-benzo[c]thien-1-yl)carbonyl-5′-aminomethyl-spiro[piperidine-4,3′-(2H)-benzo[b]furan]]
1 µM	CN(C)c1ccc(C(=O)N2CCC3(CC2)COc2ccc(CN)cc23)cc1 [Cpd 55, 1-(4-dimethylamino-phenyl)carbonyl-5′-aminomethyl-spiro[piperidine-4,3′-(2H)-benzo[b]furan]]
0.04 µM	NCc1ccc2c(c1)C1(CCN(C(=O)c3ccc(-c4ccc(Br)cc4)o3)CC1)CO2 [Cpd 140, 1-[5-(4-bromo-phenyl)-furan-2-yl]carbonyl-5′-aminomethyl-spiro[piperidine-4,3′-(2H)-benzo[b]furan]]
6.4 µM	NCc1ccc2c(c1)C1(CCN(C(=O)c3cccc4c3C(=O)c3ccccc3-4)CC1)CO2 [Cpd 270, 1-(9-oxo-fluoren-1-yl)carbonyl-5′-aminomethyl-spiro[piperidine-4,3′-(2H)-benzo[b]furan]]

Source: US8158792B2, “Spiropiperidines for use as tryptase inhibitors” (Janssen Pharmaceutica N.V., priority 2007, dated 2012)
